In ChEMBL document CHEMBL4699655, “Optimization of the In Vivo Potency of Pyrazolopyrimidine MALT1 Protease Inhibitors by Reducing Metabolism and Increasing Potency in Whole Blood” (J Med Chem, 2020):

Legend:
[1] = Intrinsic clearance in human liver microsomes; format: ADME, Microsome; conditions: read-out: CLH
[2] = Intrinsic clearance in rat liver microsomes; format: ADME, Microsome; conditions: read-out: CLH
[3] = Intrinsic clearance in mouse liver microsomes; format: ADME, Microsome; conditions: read-out: CLH
[4] = Lipophilicity, logP of the compound; conditions: octanol/water
[5] = Protein binding in human plasma; format: ADME, cell-free; conditions: read-out: PPB (converted)
[6] = Protein binding in rat plasma; format: ADME, cell-free; conditions: read-out: PPB (converted)
[7] = Oral bioavailability in Balb/C mouse at 3 mg/kg; format: ADME, organism-based; conditions: in vivo
[8] = Clearance in Sprague-Dawley rat at 1 mg/kg, iv; format: ADME, organism-based; conditions: in vivo
[9] = Clearance in Balb/C mouse at 1 mg/kg, iv; format: ADME, organism-based; conditions: in vivo
[10] = Terminal half life in Sprague-Dawley rat at 1 mg/kg, iv; format: ADME, organism-based; conditions: in vivo, read-out: beta t1/2 (converted)
[11] = Terminal half life in Balb/C mouse at 1 mg/kg, iv; format: ADME, organism-based; conditions: in vivo, read-out: beta t1/2 (converted)
[12] = Apparent volume of distribution at steady state in Sprague-Dawley rat at 1 mg/kg, iv; format: ADME, organism-based; conditions: in vivo, read-out: Vdss(app)
[13] = Apparent volume of distribution at steady state in Balb/C mouse at 1 mg/kg, iv; format: ADME, organism-based; conditions: in vivo, read-out: Vdss(app)
[14] = AUC (0 to 24 hrs) in Sprague-Dawley rat at 3 mg/kg, po; format: ADME, organism-based; design: time < 24 hr, route oral, dose 3 mg/kg; conditions: in vivo
[15] = AUC (0 to 24 hrs) in Balb/C mouse at 3 mg/kg, po; format: ADME, organism-based; design: time < 24 hr, route oral, dose 3 mg/kg; conditions: in vivo
[16] = Cmax in Sprague-Dawley rat at 3 mg/kg, po; format: ADME, organism-based; design: route oral, dose 3 mg/kg; conditions: in vivo
[17] = Cmax in Balb/C mouse at 3 mg/kg, po; format: ADME, organism-based; design: route oral, dose 3 mg/kg; conditions: in vivo
[18] = Oral bioavailability in Sprague-Dawley rat at 3 mg/kg; format: ADME, organism-based; conditions: in vivo
[19] = Clearance in rat at 1 mg/kg, iv via cassette dosing; format: ADME, organism-based; conditions: in vivo
[20] = Half life in rat at 1 mg/kg, iv via cassette dosing; format: ADME, organism-based; conditions: in vivo
Rattus norvegicus [21] = assay: Anti-autoimmune disease activity in OFA rat model of T-cell dependent B cell response assessed as reduction in SRBC-induced IgM producing B cells at 3 mg/kg, po BID for 4 days starting 2 days prior to immunization by ex vivo plaque forming assay relative to control; conditions: 96 h, read-out: INH
Rattus norvegicus [22] = assay: Anti-autoimmune disease activity in OFA rat model of T-cell dependent B cell response assessed as reduction in SRBC-induced IgM producing B cells at 10 mg/kg, po BID for 4 days starting 2 days prior to immunization by ex vivo plaque forming assay relative to control; conditions: 96 h, read-out: INH
Rattus norvegicus [23] = assay: Anti-autoimmune disease activity in OFA rat model of T-cell dependent B cell response assessed as reduction in SRBC-induced IgM producing B cells dosed orally twice daily for 4 days starting 2 days prior to immunization by ex vivo plaque forming assay relative to control; format: functional
[24] = Cmax in blood of OFA rat model of T-cell dependent B cell response at 3 mg/kg, po BID for 4 days starting 2 days prior to immunization and measured after 3 hrs; format: ADME, organism-based; design: route oral, dose 3 mg/kg, time 4 day
[25] = Cmax in blood of OFA rat model of T-cell dependent B cell response at 3 mg/kg, po BID for 4 days starting 2 days prior to immunization and measured after 14 hrs; format: ADME, organism-based; design: route oral, dose 3 mg/kg, time 4 day
[26] = Cmax in blood of OFA rat model of T-cell dependent B cell response at 10 mg/kg, po BID for 4 days starting 2 days prior to immunization and measured after 3 hrs; format: ADME, organism-based; design: route oral, dose 10 mg/kg, time 4 day
[27] = Cmax in blood of OFA rat model of T-cell dependent B cell response at 10 mg/kg, po BID for 4 days starting 2 days prior to immunization and measured after 14 hrs; format: ADME, organism-based; design: route oral, time 4 day, dose 10 mg/kg
[28] = molecular target: T1, Mucosa-associated lymphoid tissue lymphoma translocation protein 1 (Homo sapiens, UniProt Q9UDY8); assay: Inhibition of MALT1 (unknown origin) using Ac-Trp-Leu-Arg-Ser-Arg^Cys(PT14)-NH2 as substrate preincubated for 60 mins followed by substrate addition and measured after 60 mins by fluorescence assay
T1 sequence (Q9UDY8 whole entry): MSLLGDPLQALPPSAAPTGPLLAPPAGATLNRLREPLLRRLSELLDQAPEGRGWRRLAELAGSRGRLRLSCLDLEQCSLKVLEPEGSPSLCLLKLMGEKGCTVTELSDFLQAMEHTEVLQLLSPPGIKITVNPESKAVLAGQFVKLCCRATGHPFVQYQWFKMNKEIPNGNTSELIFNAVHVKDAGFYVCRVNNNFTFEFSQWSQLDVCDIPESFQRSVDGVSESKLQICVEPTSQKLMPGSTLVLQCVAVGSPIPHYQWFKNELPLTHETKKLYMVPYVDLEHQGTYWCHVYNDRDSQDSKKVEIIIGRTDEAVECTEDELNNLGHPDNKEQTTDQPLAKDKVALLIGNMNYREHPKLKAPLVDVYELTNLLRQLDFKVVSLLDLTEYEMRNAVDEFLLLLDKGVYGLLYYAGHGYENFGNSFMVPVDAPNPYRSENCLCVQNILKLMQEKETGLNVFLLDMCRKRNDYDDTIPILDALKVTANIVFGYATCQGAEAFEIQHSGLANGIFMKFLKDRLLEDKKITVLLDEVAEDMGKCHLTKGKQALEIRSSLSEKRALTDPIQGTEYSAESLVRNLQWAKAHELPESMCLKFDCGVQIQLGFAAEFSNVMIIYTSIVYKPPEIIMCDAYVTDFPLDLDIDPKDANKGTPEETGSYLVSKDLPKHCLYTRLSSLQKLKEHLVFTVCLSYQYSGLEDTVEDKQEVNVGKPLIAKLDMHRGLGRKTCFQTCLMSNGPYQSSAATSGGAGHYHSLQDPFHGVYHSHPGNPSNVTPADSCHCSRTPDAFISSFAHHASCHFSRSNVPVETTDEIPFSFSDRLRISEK

[29] = Clearance in mouse; format: ADME, organism-based; conditions: in vivo
[30] = Clearance in rat; format: ADME; conditions: in vivo
[31] = molecular target: T1, Mucosa-associated lymphoid tissue lymphoma translocation protein 1; assay: Inhibition of MALT1 in human whole blood assessed as reduction in PMA//anti-CD28 antibody-induced IL2 level pre-incubated for 1 hrs before stimulation with PMA//anti-CD28 antibody by MSD assay; format: tissue-based
[32] = molecular target: T2, Mucosa-associated lymphoid tissue lymphoma translocation protein 1 (Homo sapiens) (UniProt Q9UDY8); assay: Ratio of IC50 for inhibition of MALT1 in human whole blood assessed as reduction in PMA//anti-CD28 antibody-induced IL2 level to IC50 for inhibition of MALT1 in PMA-stimulated human Jurkat T cells assessed as reduction in IL2 level; format: tissue-based
T2 sequence (whole entry): T1 sequence (Q9UDY8 whole entry)

microsomal CLint [1] [µL/min/mg]	microsomal CLint [2] [µL/min/mg]	microsomal CLint [3] [µL/min/mg]	logP [4]	fraction unbound [5]	fraction unbound [6]	Structure (SMILES)	further results
< 25	< 25	< 25		0.038	0.027	CO[C@@H](C)c1c(NC(=O)Nc2ccnc(C(F)(F)F)c2)cnc2cc(Cl)nn12	bioavailability [7]: 50%; clearance [8]: 9 mL/min/kg; clearance [9]: 28 mL/min/kg; half-life [10]: 9.6 h; half-life [11]: 1.2 h; Vd [12]: 5.3 L/kg; Vd [13]: 3 L/kg; AUC [14]: 13.4 µM·h; AUC [15]: 2.3 µM·h; Cmax [16]: 700 nM; Cmax [17]: 500 nM; bioavailability [18]: 86%
< 25	< 25	< 25	4	< 0.01	< 0.01	CC(C)c1c(NC(=O)Nc2cnc(-n3nccn3)c(Cl)c2)cnc2cc(Cl)nn12	clearance [19]: 18 mL/min/kg; half-life [20]: 5.4 h; inhibition in vivo at 3 mg/kg (Rattus norvegicus [21]): 60%; inhibition in vivo at 10 mg/kg (Rattus norvegicus [22]): 96%; ED50 (Rattus norvegicus [23]; po, 96 h, time 4 day): 3 mg/kg; Activity (Rattus norvegicus [23]; time 4.0 day): Dose-dependent effect; Cmax [24]: 1500 nM; Cmax [25]: 400 nM; Cmax [26]: 7600 nM; Cmax [27]: 3300 nM
< 25	< 25					Cc1c(NC(=O)Nc2ccnc(C(F)(F)F)c2)cnc2cc(Cl)nn12	IC50 [28]: 0.998 µM
61	< 25					CC(C)c1c(NC(=O)Nc2ccnc(C(F)(F)F)c2)cnc2cc(Cl)nn12	
114						C[C@H]1COC[C@H](C)N1c1c(NC(=O)Nc2ccnc(C(F)(F)F)c2)cnc2cc(Cl)nn12	clearance [29]: 15 mL/min/kg; clearance [30]: 25 mL/min/kg; IC50 [31]: 9 µM; clearance [19]: 46 mL/min/kg; half-life [20]: 3.3 h; Ratio IC50 [32]: 50

More lines, now with the values behind:

Structure (SMILES)	microsomal CLint [1] [µL/min/mg]	microsomal CLint [2] [µL/min/mg]	microsomal CLint [3] [µL/min/mg]	logP [4]	fraction unbound [5]	fraction unbound [6]	further results
COC[C@H](C)c1c(NC(=O)Nc2cnc(-n3nccn3)c(Cl)c2)cnc2cc(Cl)nn12	81.4	60.9	< 25	3.4	0.014	0.012	
O=C(Nc1cnc(-n2nccn2)c(Cl)c1)Nc1cnc2cc(Cl)nn2c1C1CCOCC1	< 25	25.5		3	0.012	0.023	
COCc1c(NC(=O)Nc2cnc(-n3nccn3)c(Cl)c2)cnc2cc(Cl)nn12	< 25	< 25		3	0.019	0.035	
COC[C@@H](C)c1c(NC(=O)Nc2cnc(-n3nccn3)c(Cl)c2)cnc2cc(Cl)nn12	< 25	70.1		3.4	0.015	0.011	
CO[C@H](C)c1c(NC(=O)Nc2cnc(-n3nccn3)c(Cl)c2)cnc2cc(Cl)nn12		< 25			0.023	0.032	
O=C(Nc1cnc(-n2nccn2)c(Cl)c1)Nc1cnc2cc(Cl)nn2c1C1CC1	< 25	50.4	< 25	3.2	< 0.01	0.013	
